# In ChEMBL document CHEMBL1201862, “PubChem BioAssay data set” (2004):
# Active and inactive are the calls of the source.
# What was measured:
# SUMO-activating enzyme = SUMO-activating enzyme (Homo sapiens, UniProt Q9UBT2); test: blockers of UBC9-mediated SUMO conjugation – biochemical, AlphaScreen, SUMOylation inhibitor project, confirmation (AID 2018); type: functional
# Cytochrome P450 2D6 = Cytochrome P450 2D6 (Homo sapiens, UniProt P10635);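 further: CYP2D6 member of a cytochrome P450 panel assay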
# Cytochrome P450 2D6, sequence (P10635 whole entry): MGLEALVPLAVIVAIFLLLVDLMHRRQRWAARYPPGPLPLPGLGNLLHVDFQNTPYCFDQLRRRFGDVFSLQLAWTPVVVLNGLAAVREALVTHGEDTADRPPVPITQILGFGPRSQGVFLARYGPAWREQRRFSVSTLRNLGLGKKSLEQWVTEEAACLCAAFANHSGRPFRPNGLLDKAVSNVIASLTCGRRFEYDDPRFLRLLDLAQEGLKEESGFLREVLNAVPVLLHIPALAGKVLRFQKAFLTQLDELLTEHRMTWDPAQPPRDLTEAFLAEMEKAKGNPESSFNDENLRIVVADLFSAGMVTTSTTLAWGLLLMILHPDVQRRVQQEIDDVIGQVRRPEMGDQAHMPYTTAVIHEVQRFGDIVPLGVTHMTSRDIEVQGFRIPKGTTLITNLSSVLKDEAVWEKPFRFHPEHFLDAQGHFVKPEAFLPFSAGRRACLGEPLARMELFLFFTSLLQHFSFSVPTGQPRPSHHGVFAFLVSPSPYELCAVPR
# Cytochrome P450 2C19 = Cytochrome P450 2C19 (Homo sapiens, UniProt P33261); test: Cytochrome panel assay with activity outcomes. Panel member name: p450-cyp2c19 Compounds with AC50 equal or less than 10 uM are considered active; type: functional
# Cytochrome P450 2C19, sequence (P33261 whole entry): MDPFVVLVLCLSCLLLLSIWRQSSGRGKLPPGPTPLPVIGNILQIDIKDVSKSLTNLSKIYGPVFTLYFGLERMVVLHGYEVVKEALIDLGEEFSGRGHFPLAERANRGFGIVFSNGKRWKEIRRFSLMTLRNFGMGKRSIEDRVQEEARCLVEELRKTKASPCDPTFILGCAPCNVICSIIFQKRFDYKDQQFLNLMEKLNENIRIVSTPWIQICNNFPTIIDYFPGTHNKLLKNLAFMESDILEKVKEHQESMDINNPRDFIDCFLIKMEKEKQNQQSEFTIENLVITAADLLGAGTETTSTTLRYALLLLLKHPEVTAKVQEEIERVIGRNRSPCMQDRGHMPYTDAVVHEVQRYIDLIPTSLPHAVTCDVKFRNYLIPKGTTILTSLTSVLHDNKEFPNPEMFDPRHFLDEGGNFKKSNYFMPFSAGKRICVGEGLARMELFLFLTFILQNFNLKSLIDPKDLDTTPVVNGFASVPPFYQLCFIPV
# Cytochrome P450 2C9 = Cytochrome P450 2C9 (Homo sapiens, UniProt P11712)
# Cytochrome P450 2C9, sequence (P11712 whole entry): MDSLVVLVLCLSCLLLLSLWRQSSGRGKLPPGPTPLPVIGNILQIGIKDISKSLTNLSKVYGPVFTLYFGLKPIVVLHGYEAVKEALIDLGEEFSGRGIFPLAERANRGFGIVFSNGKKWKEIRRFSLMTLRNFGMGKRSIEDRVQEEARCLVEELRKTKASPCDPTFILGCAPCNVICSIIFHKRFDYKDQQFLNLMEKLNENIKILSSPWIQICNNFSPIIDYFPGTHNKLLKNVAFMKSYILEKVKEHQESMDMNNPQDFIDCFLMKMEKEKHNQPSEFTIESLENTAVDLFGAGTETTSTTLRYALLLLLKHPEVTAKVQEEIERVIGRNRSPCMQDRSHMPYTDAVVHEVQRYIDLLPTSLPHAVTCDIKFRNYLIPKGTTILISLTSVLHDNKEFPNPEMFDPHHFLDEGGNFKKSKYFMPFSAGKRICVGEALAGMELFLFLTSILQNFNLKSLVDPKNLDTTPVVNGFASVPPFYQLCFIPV
# Cytochrome P450 1A2 = molecular target: T1, Cytochrome P450 1A2 (Homo sapiens, UniProt P05177);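 further: PubChem cytochrome P450 panel assay, CYP1A2 panel member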
# T1 sequence (P05177 whole entry): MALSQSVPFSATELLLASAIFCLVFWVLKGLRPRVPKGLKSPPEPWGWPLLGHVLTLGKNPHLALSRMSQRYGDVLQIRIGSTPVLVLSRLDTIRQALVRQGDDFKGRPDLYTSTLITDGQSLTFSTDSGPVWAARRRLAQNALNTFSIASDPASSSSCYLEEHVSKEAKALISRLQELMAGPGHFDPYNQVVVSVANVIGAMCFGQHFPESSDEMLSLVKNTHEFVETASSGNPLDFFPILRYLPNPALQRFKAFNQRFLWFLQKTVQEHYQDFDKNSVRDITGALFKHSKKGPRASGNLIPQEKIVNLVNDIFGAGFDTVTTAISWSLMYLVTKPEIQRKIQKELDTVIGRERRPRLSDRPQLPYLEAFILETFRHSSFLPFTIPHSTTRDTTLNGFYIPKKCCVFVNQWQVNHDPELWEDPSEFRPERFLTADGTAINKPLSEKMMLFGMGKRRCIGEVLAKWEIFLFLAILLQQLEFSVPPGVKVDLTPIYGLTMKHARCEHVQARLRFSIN
# [1] = HEK-293T viability loss after treatment – luminescence, T-cell screen hits, cytotoxicity control for TCR NF-kB inhibitor project, dose response (AID 489026); type: functional, cell-based;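 further: cells exposed to compound about 14 hours before the viability readout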
# BJ [2] = test: cells; type: functional, cell-based; details: Homo sapiens
# BJ [3] = test: BJ-TERT fibroblast viability loss – cell-based, RAS-independent, luminescence, dose response (AID 1933); type: functional; details: Homo sapiens
# [4] = DRD fibroblast viability loss – cell-based, non-viral oncogenic, luminescence, dose response (AID 1934); type: functional; details: Homo sapiens
# [5] = molecular target: T2, DNA repair and recombination protein RAD54-like (Homo sapiens, UniProt Q92698); test: RAD54 Holliday junction migration blockers – biochemical, fluorescence, cherry-picked samples, dose series, confirmation (AID 651657); type: functional
# T2 sequence (Q92698 whole entry): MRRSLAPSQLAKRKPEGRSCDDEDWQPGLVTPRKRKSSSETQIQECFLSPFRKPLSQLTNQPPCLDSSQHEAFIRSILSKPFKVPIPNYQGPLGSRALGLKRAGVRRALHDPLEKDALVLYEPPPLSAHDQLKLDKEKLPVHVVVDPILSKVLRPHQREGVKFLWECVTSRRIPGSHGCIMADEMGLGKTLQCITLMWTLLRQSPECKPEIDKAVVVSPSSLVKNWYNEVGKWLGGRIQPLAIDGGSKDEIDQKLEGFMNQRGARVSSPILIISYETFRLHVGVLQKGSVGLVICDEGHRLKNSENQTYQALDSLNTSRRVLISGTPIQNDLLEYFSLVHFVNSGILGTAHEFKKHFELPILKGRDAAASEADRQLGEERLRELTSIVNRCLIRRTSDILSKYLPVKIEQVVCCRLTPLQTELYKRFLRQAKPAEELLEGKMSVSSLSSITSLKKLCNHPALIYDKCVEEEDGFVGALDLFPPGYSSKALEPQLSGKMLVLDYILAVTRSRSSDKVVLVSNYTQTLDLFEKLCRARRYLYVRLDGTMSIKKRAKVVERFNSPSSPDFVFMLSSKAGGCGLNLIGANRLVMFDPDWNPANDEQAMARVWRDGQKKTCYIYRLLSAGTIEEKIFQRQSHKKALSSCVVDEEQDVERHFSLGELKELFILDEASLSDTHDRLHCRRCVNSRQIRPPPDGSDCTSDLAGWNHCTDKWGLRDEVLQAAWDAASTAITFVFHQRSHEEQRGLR
# [6] = Luminescence Cell-Based Dose Response HTS to Identify Activators of Luciferase Translation or Activity in H4 […] Cells. [Related pubchem assays: 1829 (Project Summary), 1814 (Primary HTS)]; type: functional
# [7] = Luminescence Cell-Based Dose Confirmation HTS to Identify Activators of 5'UTR Stem-Loop Driven Alpha-Synuclein mRNA Translation in H4 Neuroglioblastoma Cells. [Related pubchem assays: 1829 (Project Summary), 1814 (Primary HTS)]; type: functional
# H4 = test: Luminescence Cell-Based Dose Response HTS to Identify Activators of 5'UTR Stem-Loop Driven Prion Protein mRNA Translation in H4 Neuroglioblastoma Cells. [Related pubchem assays: 1829 (Project Summary), 1814 (Primary HTS)]; type: functional; details: Homo sapiens
# [8] = molecular target: Dual specificity tyrosine-phosphorylation-regulated kinase 1A (Rattus norvegicus, UniProt Q63470); type: biochemical, Homo sapiens
# Vero = test: cells; type: functional; details: Chlorocebus sabaeus
# Protein RecA = molecular target: T3, Protein RecA (Mycobacterium tuberculosis, UniProt P9WHJ3); test: Fluorescence Cell-Free Homogeneous Dose Retest to Identify Inhibitors of RecA-Intein Splicing Activity. [Related pubchem assays (depositor defined):AID2097, AID2223, AID489010, AID492950]; type: functional
# T3 sequence (P9WHJ3 whole entry): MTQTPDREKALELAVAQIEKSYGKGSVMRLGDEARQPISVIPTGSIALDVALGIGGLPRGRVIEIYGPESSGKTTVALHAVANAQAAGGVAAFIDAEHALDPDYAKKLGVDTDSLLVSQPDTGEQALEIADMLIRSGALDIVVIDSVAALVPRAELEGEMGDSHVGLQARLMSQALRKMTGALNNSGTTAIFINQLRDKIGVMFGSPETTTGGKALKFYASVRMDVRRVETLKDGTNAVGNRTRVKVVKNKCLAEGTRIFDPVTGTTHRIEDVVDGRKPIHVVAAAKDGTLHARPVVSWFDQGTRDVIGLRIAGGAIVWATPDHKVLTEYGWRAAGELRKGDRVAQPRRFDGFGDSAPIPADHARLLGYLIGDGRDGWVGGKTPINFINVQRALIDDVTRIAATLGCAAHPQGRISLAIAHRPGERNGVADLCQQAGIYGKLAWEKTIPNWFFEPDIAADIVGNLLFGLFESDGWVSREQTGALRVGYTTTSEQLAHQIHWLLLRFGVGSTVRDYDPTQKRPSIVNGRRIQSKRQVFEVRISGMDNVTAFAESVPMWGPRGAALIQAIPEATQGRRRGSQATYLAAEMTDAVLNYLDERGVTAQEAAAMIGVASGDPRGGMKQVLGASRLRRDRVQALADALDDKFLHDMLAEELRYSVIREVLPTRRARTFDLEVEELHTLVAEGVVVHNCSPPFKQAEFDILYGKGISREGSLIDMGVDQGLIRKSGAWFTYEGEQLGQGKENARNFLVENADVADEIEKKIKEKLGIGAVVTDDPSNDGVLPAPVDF
# Nonstructural protein 1 = Nonstructural protein 1 (Influenza A virus, UniProt Q194T2); type: functional, Influenza A virus (A/California/07/2009(H1N1))
# Nonstructural protein 1, sequence (Q194T2 whole entry): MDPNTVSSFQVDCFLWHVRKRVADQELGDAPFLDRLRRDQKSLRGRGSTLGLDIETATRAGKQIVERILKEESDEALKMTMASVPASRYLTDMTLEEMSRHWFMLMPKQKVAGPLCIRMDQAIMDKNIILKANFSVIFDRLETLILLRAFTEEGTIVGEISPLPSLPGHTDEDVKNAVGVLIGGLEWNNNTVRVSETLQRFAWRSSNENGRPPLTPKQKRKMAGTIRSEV
# Streptococcus = test: GAS UMAA2166 growth inhibition – luminescence, BacTiterGlo, counter-screen for streptokinase expression inhibitor project, dose response (AID 1915); type: functional, organism-based;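 further: potency for reduction of bacterial viability or growth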
# [9] = system: Streptococcus sp. 'group A'; test: Streptococcus pyogenes SK(-)GAS viability under kanamycin – luminescence, BacTiterGlo, confirmation, counter-screen for streptokinase expression inhibitor project, dose response (AID 1900); type: functional, organism-based
# [10] = molecular target: T4, Replicative DNA helicase DnaB (Mycobacterium tuberculosis, UniProt P9WMR3); test: DnaB intein splicing inhibitors, dose response, biochemical, cell-free fluorescence (AID 449749); type: functional
# T4 sequence (P9WMR3 whole entry): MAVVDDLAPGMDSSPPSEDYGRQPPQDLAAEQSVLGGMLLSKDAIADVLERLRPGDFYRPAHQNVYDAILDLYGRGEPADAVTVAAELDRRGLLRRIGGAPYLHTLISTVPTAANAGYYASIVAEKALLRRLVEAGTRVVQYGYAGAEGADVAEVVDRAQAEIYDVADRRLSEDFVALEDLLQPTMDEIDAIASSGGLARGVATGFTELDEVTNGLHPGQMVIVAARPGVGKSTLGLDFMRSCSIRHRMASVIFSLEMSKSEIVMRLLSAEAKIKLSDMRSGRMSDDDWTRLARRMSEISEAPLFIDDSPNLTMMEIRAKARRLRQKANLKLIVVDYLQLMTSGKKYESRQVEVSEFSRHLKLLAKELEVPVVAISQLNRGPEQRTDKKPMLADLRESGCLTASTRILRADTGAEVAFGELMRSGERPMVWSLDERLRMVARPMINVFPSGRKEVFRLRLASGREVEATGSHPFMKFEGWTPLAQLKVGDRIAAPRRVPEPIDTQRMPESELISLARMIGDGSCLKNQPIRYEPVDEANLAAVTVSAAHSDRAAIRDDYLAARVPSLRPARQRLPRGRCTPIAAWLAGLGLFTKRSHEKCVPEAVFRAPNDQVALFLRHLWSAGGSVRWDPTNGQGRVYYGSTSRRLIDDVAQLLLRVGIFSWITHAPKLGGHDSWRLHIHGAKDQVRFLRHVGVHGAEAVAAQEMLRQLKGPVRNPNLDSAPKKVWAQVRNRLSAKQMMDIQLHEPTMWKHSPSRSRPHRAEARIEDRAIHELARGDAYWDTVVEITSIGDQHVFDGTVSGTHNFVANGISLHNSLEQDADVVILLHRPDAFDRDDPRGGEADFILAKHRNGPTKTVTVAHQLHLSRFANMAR
# SUMO-activating enzyme, sequence (Q9UBE0 whole entry): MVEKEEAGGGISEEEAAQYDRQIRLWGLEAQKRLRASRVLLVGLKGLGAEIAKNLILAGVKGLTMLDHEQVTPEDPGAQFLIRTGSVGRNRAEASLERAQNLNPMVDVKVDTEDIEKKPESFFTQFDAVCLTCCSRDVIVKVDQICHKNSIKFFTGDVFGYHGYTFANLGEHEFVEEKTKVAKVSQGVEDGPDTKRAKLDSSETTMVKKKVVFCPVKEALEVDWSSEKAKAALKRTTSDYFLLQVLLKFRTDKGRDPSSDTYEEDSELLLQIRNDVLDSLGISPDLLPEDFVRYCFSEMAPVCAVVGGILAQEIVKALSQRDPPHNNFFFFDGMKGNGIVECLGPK
# SUMO-activating enzyme, sequence (Q9UBT2 whole entry): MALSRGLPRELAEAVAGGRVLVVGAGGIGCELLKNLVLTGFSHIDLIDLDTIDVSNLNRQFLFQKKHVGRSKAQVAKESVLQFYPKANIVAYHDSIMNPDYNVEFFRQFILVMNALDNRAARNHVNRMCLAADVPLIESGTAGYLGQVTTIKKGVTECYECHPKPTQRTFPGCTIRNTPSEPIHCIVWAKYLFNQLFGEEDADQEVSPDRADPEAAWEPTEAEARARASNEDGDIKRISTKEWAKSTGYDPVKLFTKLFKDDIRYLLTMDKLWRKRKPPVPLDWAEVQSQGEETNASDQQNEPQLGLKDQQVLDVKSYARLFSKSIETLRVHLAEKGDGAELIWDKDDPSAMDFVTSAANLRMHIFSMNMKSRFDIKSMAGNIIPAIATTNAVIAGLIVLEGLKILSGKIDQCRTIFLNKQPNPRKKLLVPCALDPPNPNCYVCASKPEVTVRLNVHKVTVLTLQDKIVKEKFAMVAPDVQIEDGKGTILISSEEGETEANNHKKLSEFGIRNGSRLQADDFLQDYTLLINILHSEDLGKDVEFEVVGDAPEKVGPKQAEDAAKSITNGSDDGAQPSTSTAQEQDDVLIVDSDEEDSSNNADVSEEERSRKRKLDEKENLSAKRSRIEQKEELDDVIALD
smiles,measurement,setting,value
Cc1nn(-c2ccccc2)c2sc(C(=O)NNC(=O)COc3ccccc3)cc12,IC50,SUMO-activating enzyme,33.6 µM (active)
CC(C)(C)c1ccc(OC(=O)Cn2c(C(F)(F)F)nc3ccccc32)cc1,AC50,Cytochrome P450 2D6,inconclusive
same,AC50,Cytochrome P450 2C19,inconclusive
same,AC50,Cytochrome P450 2C9,0.891 µM (inconclusive)
CN(C)c1ncnc2c1ncn2CCn1cnc2c(N(C)C)ncnc21,AC50,Cytochrome P450 2D6,inconclusive
same,AC50,Cytochrome P450 1A2,6.31 µM (inconclusive)
COc1cc(-c2noc(C)c2-c2ccc(N(C)C)nc2)cc(OC)c1OC,IC50,[1],> 80 µM (inactive)
same,EC50,BJ [2],15.7 µM (inconclusive)
same,EC50,BJ [3],0.174 µM (active)
same,EC50,[4],4.06 µM (inconclusive)
CCNCCNC(=O)c1c(O)c2cccc3c2n(c1=O)CCC3,AC50,[5],86.3 µM (active)
CCc1ccc2nc(NC(=O)C3CSC4(C)CCC(=O)N34)sc2c1 (stereo not drawn),EC50,[6],19.6 µM (active)
same,EC50,[7],> 120 µM (not active)
same,EC50,H4,6.99 µM (active)
same,AC50,[8],7.62 µM (active)
CN(C)CCNC(=O)c1cc2c(=O)n(C)c3ccccc3c2n1C,AC50,[5],16.2 µM (active)
O=C(O)c1cc2ccccc2c(S(=O)(=O)O)c1O,AC50,Cytochrome P450 2D6,inconclusive
Cc1ccc(C(=O)Nc2sc3c(c2C(=O)NCc2ccco2)CCCC3)cc1,IC50,SUMO-activating enzyme,29.9 µM (active)
CC1CCC(C(C)C)C2=C1C(C#N)(C#N)C(C#N)(C#N)C(c1ccccc1)N2 (stereo not drawn),CC50,Vero,16.7 µM (active)
same,AC50,[8],5.69 µM (active)
COc1cc2cc(c1Cl)N(C)C(=O)C[C@H](OC(=O)C(C)C)[C@]1(C)O[C@@H]1[C@@H](C)[C@H]1C[C@](O)(NC(=O)O1)[C@@H](OC)/C=C\C=C(\C)C2,AC50,Cytochrome P450 2D6,inconclusive
same,AC50,Cytochrome P450 2C19,inconclusive
O=C(NC(=S)NNC(=O)c1ccccc1O)c1ccco1,EC50,Protein RecA,114 µM (inconclusive)
same,IC50,Nonstructural protein 1,8.7 µM (active)
same,EC50,Streptococcus,7.67 µM (active)
same,EC50,[9],3.27 µM (active)
same,AC50,[10],95.2 µM (active)
O=c1c(O[C@@H]2O[C@H](CO)C(O)C2O)c(-c2ccc(O)c(O)c2)oc2cc(O)cc(O)c12 (stereo partly drawn),AC50,[8],18 µM (active)
O=C(N/N=C\c1cn[nH]c1-c1ccc(Cl)cc1)c1cccs1,IC50,SUMO-activating enzyme,> 100 µM (inactive)
COc1ccc(/C=N/N(C(C)=O)c2nc(-c3ccc(C)cc3)cs2)cc1,AC50,Cytochrome P450 2D6,inconclusive
same,AC50,Cytochrome P450 2C19; read-out: AC50,0.447 µM (inconclusive)
same,AC50,Cytochrome P450 2C9,3.16 µM (inconclusive)
O=C(Nc1ccc2ccccc2n1)c1ccccc1,AC50,[8],77.5 µM (active)
